According to article PMC3498381, “Isolated Toll-like Receptor Transmembrane Domains Are Capable of Oligomerization” (PLoS ONE, 2012):
No end group written: not given here.

How the values were obtained:
[1] = tested on: TLR6 TMD (functional ToxR chimera); experiment: Dominant-negative (heterotypic) ToxR assay, TLR6 as dominant phenotype; assay type: cell-based, E. coli; settings: Miller units normalized to poly-Leu* = 1 and corrected for expression, lower = stronger interaction, N in table
From the text: (§1) Next, we investigated heterotypic interactions of the TLRs. We specifically studied TLR2, TLR1, and TLR6 because they are cell surface expressed receptors known to form functional heterodimers. To determine the ability of these three cell surface TLRs to have heterotypic interactions within its family, we studied the ability of the TLR1, TLR2, and TLR6 TMDs to interact with the TLR receptors also expressed at the cell surface; namely, TLR1, TLR2, TLR4, TLR5, TLR6, and TLR10. We monitored these interactions using a dominant-negative ToxR assay (Fig. S1B) which works by having a second TMD expressed with a non-functional ToxR* intracellular domain. This ToxR* domain is incapable of binding the ctx promoter making any interactions with this second expressed TMD unable to produce the reporter enzyme. As such, any interaction between the functional ToxR and non-functional ToxR* TMDs will result in a reduction in signal output.
(§2) Figure 3 Cell- Surface Toll-like Recptor Heterotypic Interactions. (A) A dominant-negative ToxR assay was used to study heterotypic interactions of the cell-surface TLRs. Two TLR TMDs were encoded in the FHK12 E.coli reporter strain, one with a functional ToxR domain (dominant phenotype) and one with a nonfunctional ToxR* domain (negative phenotype). Interaction between the two different TMDs leads to a reduction in signal from that seen for homotypic interactions. The TMDs for GpA, TLR1, TLR2, and TLR6 were used with the functional ToxR domain while TMDs for poly-Leucine, TMD5, integrin αIIb, TLR1, TLR2, TLR4, TLR5, TLR6, and TLR10 were used with the nonfunctional ToxR* domain. Interactions were most prominent for the TLRs known to have heterotypic interactions – TLR2-TLR1 and TLR2-TLR6. […] We also saw interaction with the same TMD further validating the homotypic interactions. […] Each dominant phenotype was done in 3 technical replicates with each negative phenotype and >6 measurements made for each replicate. Error bars depict the standard error of the mean (n- Tables S3, S5, S7, S9). Western blots staining for MBP were performed to monitor expression levels of the constructs with the upper band being functional ToxR chimeras and the lower band being nonfunctional ToxR* chimeras – (B) GpA, (C) TLR1, (D) TLR2, and (E) TLR6. Significant differences for the same dominant phenotype were determined by use of the Tukey-Kramer test.
(§3) For heterotypic interactions one plasmid containing a functional ToxR domain (200 ng) and a second plasmid containing a non-functional ToxR* domain (200 ng) were co-transformed into chemically competent FHK12 E. coli (400 µL) by incubating on ice for 30 min, heat shock at 42°C for 90 s, incubation on ice for 2 min, and addition of SOC media (1600 µL) followed by incubation with shaking for 1 h at 37°C. This transformation mixture (50 µL) was then used to spread LB-agar plates containing cholaramphenicol (30 µg/mL), kanamycin (33 µg/mL), and ampicillin (100 µg/mL) and grown overnight at 37°C. Single colonies were selected from the plates and grown in 5 mL LB media containing cholaramphenicol (30 µg/mL), kanamycin (33 µg/mL), ampicillin (100 µg/mL), and arabinose (0.0025%) overnight (16–20 h) with shaking at 37°C. Analysis of activity was monitored as described in homotypic ToxR assays. Western blotting was done in the same manner as the homotypic ToxR assay with one band appearing for the functional ToxR construct and a second band for the nonfunctional ToxR* construct. Data were normalized to poly-Leu* Miller Units and corrected for varying protein expression levels using ImageJ (NIH) as previously reported.

[2] = tested on: TLR2 TMD (functional ToxR chimera); experiment: Dominant-negative (heterotypic) ToxR assay, TLR2 as dominant phenotype; assay type: cell-based; settings: Miller units normalized to poly-Leu* = 1 and corrected for expression, lower = stronger interaction, N in table
From the text: as §1, §2, §3

[3] = tested on: GpA TMD (functional ToxR chimera); experiment: Dominant-negative (heterotypic) ToxR assay, GpA as dominant phenotype; assay type: cell-based; settings: Miller units normalized to poly-Leu* = 1 and corrected for expression, lower = stronger interaction, N in table
From the text: as §1, §2, §3

[4] = tested on: homotypic TMD-TMD interaction (ToxR / ctx promoter / β-galactosidase reporter in FHK12 E. coli); experiment: Homotypic ToxR reporter assay (β-galactosidase); assay type: cell-based; settings: for Mean homotypic TMD interaction (ToxR): β-galactosidase Miller units normalized to GpA signal and expression levels, FHK12 E. coli, 3 replicates with >6 measurements each, N in table
Experimental: . Various plasmid constructs for this assay make it possible to monitor both homotypic and heterotypic interactions that are driven by TMD-TMD association (Fig. S1).
We first investigated homotypic interactions because the majority of the TLR family members function as homodimers. […] This ΔTM construct consists of the same maltose binding protein and ToxR domain, but lacks a TMD for proper membrane insertion (Fig. S2). Statistical analysis using the Tukey-Kramer test was performed to analyze any significant differences between all possible pairs of average interaction potentials (Table S2). […] Among the TLRs, no discernable differences in grouping based on statistical analysis at p = 0.05 were indicated as all receptors belonged to multiple groups, except for TLR1, which with the lowest interaction potential among the family of receptors only existed in one group (Table S1).
Figure 2 Toll-like Receptor Transmembrane Domain Homotypic Interactions. (A) The ToxR assay was used to study homotypic interactions of the TLR TMDs. A chimeric protein expressing the TMD of interest was monitored through β-galactosidase activity. In all cases, we saw that the TLRs have interaction potential solely from TMD-TMD interactions. Each TLR TMD interaction measurement analysis was performed on 3 technical replicates with >6 measurements for each replicate. Error bars depict the standard error of the mean (n – Table S1). Western blots staining for MBP were performed to monitor expression levels of the constructs – (B) chimeric maltose binding protein expression, (C) endogenous maltose binding protein expression. All samples were normalized to the GpA signal and expression levels.
Briefly, the ToxR plasmids containing the TMD of interest (200 ng) were transformed into chemically competent FHK12 E. coli (200 µL) by incubating on ice for 30 min, heat shock at 42°C for 90 s, incubation on ice for 2 min, and addition of SOC media (800 µL) followed by incubation with shaking for 1 h at 37°C. This transformation mixture (50 µL) was then spread on LB agar plates containing cholaramphenicol (30 µg/mL) and ampicillin (100 µg/mL) and grown overnight at 37°C. Single colonies were selected from the plates in triplicate and added to 5 mL of LB media containing cholaramphenicol (30 µg/mL), ampicillin (100 µg/mL), and arabinose (0.0025%). These cultures were incubated overnight (16–20 h) with shaking at 37°C. The β-galactosidase activity was monitored using a Beckman Coulter DTX 880 plate-reader. First 5 µL of each culture was plated >6 times in a clear 96-well flat bottom culture plate (Sarstedt) containing 100 µL of Z-buffer/chloroform (1% β-mercaptoethanol, 10% chloroform, 89% Z buffer: […], 10 mM potassium chloride, 1 mM magnesium sulfate, pH 7.0). The cell densities of each well were recorded by measuring the OD595. Bacteria were lysed by the addition of 50 µL Z-buffer/SDS (1.6% sodium dodecyl sulfate w/v in Z-buffer) and shaking at 28°C for 10 min. Enzymatic activity was measured by adding 50 µL of Z-buffer/ortho-Nitrophenyl-β-[…] (ONPG) (0.4% ONPG w/v in Z-buffer) and monitoring the reaction at 405 nm for a period of 20 min at 30 s intervals. Miller units were calculated using the equation: [drawing 1]
Western blotting was performed with antiserum recognizing the maltose-binding protein moiety of the constructs (Abcam). Data were normalized to GpA Miller Units and protein expression levels using ImageJ (NIH) as reported previously.

[5] = tested on: TLR1 TMD (functional ToxR chimera); experiment: Dominant-negative (heterotypic) ToxR assay, TLR1 as dominant phenotype; assay type: cell-based; settings: Miller units normalized to poly-Leu* = 1 and corrected for expression, lower = stronger interaction, N in table
From the text: as §1, §2, §3

Substance	Mean TLR6-TMD* heterotypic interaction (ToxR signal) [1]	Mean TLR2-TMD* heterotypic interaction (ToxR signal) [2]	Mean GpA-TMD* heterotypic interaction (ToxR signal) [3]	Mean homotypic TMD interaction (ToxR) [4]	Mean TLR1-TMD* heterotypic interaction (ToxR signal) [5]	Effect of TLR2 point mutation on homotypic interaction ([4]; homotypic ToxR assay, compared with wild type TLR2 TMD (Fig. 7A))
TLR4*: TLR4 TMD chimera with nonfunctional ToxR* domain (negative phenotype) (GNRASTIIGVSVLVVSVVAVLVYKFYFGSLIN; also: fused to non-functional ToxR* (S87H) and maltose binding protein, ends not given here)	0.9610	1.1386	1.1905	0.5620	0.8709	
TLR10*: TLR10 TMD chimera with nonfunctional ToxR* domain (negative phenotype) (GNRASALLIVTIVVIMLVLGLAVAFCCLGSLIN; cysteine pairing not given here; also: fused to non-functional ToxR* (S87H) and maltose binding protein, ends not given here)	0.3445	0.3877	1.1244	0.8259	0.3608	
GNRASLIIF G VMA G VIGTILGSLIN [GpA TMD, reference compound]				1.0000		
GNRASFALSLL A V A L G L G VPMLHHLGSLIN [TLR9 TMD]				0.7992		
GNRASWQLLAFFLAFFLDLILLIIALYLGSLIN [TMD5*, TMD5 of latent membrane protein 1 fused to nonfunctional ToxR* domain, unrelated receptor, reference compound]	1.1235	1.1904	1.1703		1.0921	
GNRASWVLV G VLG G LLLLTILVLAMWGSLIN [Integrin*, Integrin αIIb TMD fused to nonfunctional ToxR* domain, unrelated receptor, reference compound]	0.6106	0.7609	1.0189		0.7583	
TLR2 G593V (GNRASALVSVMCCALFLLILLTGVLCGSLIN; cysteine pairing not given here; also: fused to maltose-binding protein and ToxR activation domain, ends not given here)						no mutation demonstrated significant difference from the wild type TLR2 TMD
GNRASLILF S L S I S V S LFLMVMMTASHLGSLIN [TLR7 TMD]				0.4947		
GNRASVTAVILFFFTFFITTMVMLAALAGSLIN [TLR8 TMD]				0.7486		
GNRASLFFMINTSILLIFIFIVLLIHFGSLIN [TLR3 TMD]				0.8032		
TLR5*: TLR5 TMD chimera with nonfunctional ToxR* domain (negative phenotype) (GNRASFSLFIVCTVTLTLFLMTILTVTGSLIN; also: fused to non-functional ToxR* (S87H) and maltose binding protein, ends not given here)		0.9233	0.8934	0.6087	0.6805	
